Experimental data as given in ChEMBL document CHEMBL1806426, “Simple but powerful: phenanthroline-based small molecules for cellular imaging and cancer screening” (Bioorg Med Chem Lett, 2011).
pIC50: −log10 of the molar value.

Assays:
[1] = Drug uptake in human HET-1A endoplasmic reticulum after 5 mins by confocal microscopy; type: ADME
[2] = Drug uptake in human HET-1A endoplasmic reticulum after 20 mins to 2 hrs by confocal microscopy; type: ADME
[3] = Drug uptake in human OE21 endoplasmic reticulum assessed as fluorescence intensity at 18 uM after 20 mins to 2 hrs by confocal microscopy; type: ADME
[4] = Drug uptake in human OE21 endoplasmic reticulum at 9 uM after 5 mins by confocal microscopy; type: ADME
[5] = Drug uptake in human OE21 endoplasmic reticulum at 27 uM after 20 mins by confocal microscopy; type: ADME
[6] = Ratio of IC50 for cytotoxicity against human HET-1A cells to IC50 for cytotoxicity against human OE21 cells; type: toxicity, cell-based; details: HET-1A cells and OE21 cells, read-out: Ratio IC50
[7] = Cytotoxicity against human OE21 cells assessed as cell survival after 24 hrs by MTT assay; type: functional, cell-based; details: OE21, 24 h
[8] = Solubility of the compound in phosphate buffer solution at pH7.4; type: physicochemical; details: pH 7.4
[9] = Cytotoxicity against human HET-1A cells assessed as cell survival after 24 hrs by MTT assay; type: cell-based

| Compound | Drug uptake [1] | Drug uptake [2] | Drug uptake [3] | Drug uptake [4] | Drug uptake [5] | selectivity ratio [6] | pIC50 [7] | solubility [8] | pIC50 [9] |
| --- | --- | --- | --- | --- | --- | --- | --- | --- | --- |
| C[Si](C)(C)C#Cc1ccc(-c2nc3c4cccnc4c4ncccc4c3[nH]2)cc1 | Active | Active | Active | Active | Active | 7 | 6.36 | soluble | 5.52 |
| Brc1ccc(-c2nc3c4cccnc4c4ncccc4c3[nH]2)cc1 |  | Active | Active | Active | Active | 4 | 6.11 | soluble | 5.50 |
